Laboratory results taken from US10765128B2, “Composition for prevention or treatment of metabolic syndrome or for antioxidation containing black bean leaf extracts and flavonol glysosides isolated therefrom as active ingredients” (KOREA RESEARCH INSTITUTE OF BIOSCIENCE AND BIOTECHNOLOGY, priority 2015, dated 2020).
Like-named read-outs stand apart in the source and are kept apart here.

Assays:
[1] = molecular target: α-glucosidase (EC 3.2.1.20, Baker Yeast) (Saccharomyces cerevisiae, UniProt P53341); assay: α-glucosidase inhibitory activity (nitrophenol method); format: biochemical; settings: sample concentration 100 μM
Method: Specifically, the α-glucosidase inhibitory activity was performed using the nitrophenol method as described by Kato, et al., (J. Med. Chem 48: 2036-2044, 2005) with slight modification. An accumulation amount was measured by the optical density of a chromophoric group of monosaccharides such as glucose, which was generated by hydrolysis of a substrate p-nitrophenyl-[…] (Sigma-Aldrich) by means of α-glucosidase (EC 3.2.1.20, Baker Yeast).
Fifty μl of a buffer solution (70 mM calcium phosphate, pH 6.8), 50 μl of a sample extract or a compound dissolved in 50% DMSO, and 50 μl of α-glucosidase (0.1 unit/ml) were injected into a 96-well plate (NUNC™ Co.) and a substrate (5 mM, p-nitrophenyl-α-D-glucopyranoside) was finally added therein, after which a resulting plate was reacted at 37° C. for 30 minutes, such that 2 M NaOH was added therein to finish a reaction thereof. An amount of a chromophoric group generated was measured at 405 nm by using a microplate reader (ANTHOS™ Co.) to calculate an inhibitory activity.

[2] = test system: MIN6 β-cells; assay: insulin secretion in 30 mM glucose-induced MIN6 β-cells (ELISA insulin kit); format: cell-based, mouse; settings: for activation at 100 µM: Mus musculus, MIN6, 0.5 h, sample concentration 100 μM, read-out: Increase (%) in Insulin Secretion Amount in 30 mM Glucose-induced MIN6 Pancreatic β-Cells; for increase in amount of insulin secretion relative to its aglycone: 100 μM, Formula 4 vs quercetin, Formula 7 vs isorhamnetin
Method: MIN6 β-cells, which is a mouse pancreatic. β-cell strain, was cultured in DMEM (Lonza Co.) containing 15% FBS (Gibco Co.), 100 units/ml penicillin, and 100 μg/ml streptomycin at 37° C. in a humid 5% CO2 incubator.
MIN6 cells were seeded into a 24-well plate (1×10^5 cells/well) and cultured at 37° C. in a humid 5% CO2 Incubator. In 48 hours later, the medium was first replaced with a DMEM without glucose contained therein, after which a resulting medium was left alone for 60 minutes, such that the black soybean (seoritae) leaf extract and the flavonol glycoside compounds, samples of the present invention, were treated at a certain concentration, into the DMEM with 30 mM glucose contained therein, thus being reacted for 30 minutes. A control group was one without a sample added therein under the same condition as described above, and the insulin secreted into the medium was measured by using an ELISA insulin kit (Alpco diagnostics). […]

[3] = DPPH radical scavenging activity; settings: sample concentration 50 μM
Method: Two mL of a DPP solution was mixed in 1 mL of a test substance solution, after which a resulting mixture was stirred well. An optical density was measured at 517 nm at an interval of 1 minute for 20 minutes by using an UV/Vis spectrophotometer to evaluate the degree of DPPH radical scavenging activity.

[4] = test system: LDL (low-density lipoprotein); assay: LDL-antioxidant activity, Cu2+-induced LDL oxidation (TBARS method); format: biochemical; settings: for IC50: read-out: LDL Oxidation Inhibitory Activity, IC50 value; for LDL Oxidation Inhibitory Activity: sample concentration 100 μM
Source text: Med. Chemn. Lett. 14: 2719-2723, 2004). Results thereof were shown in a following Table 9.

[5] = test system: RAW264.7 cells; assay: ROS accumulation inhibitory activity in LPS-stimulated RAW264.7 cells (DCFH2-DA); format: cell-based; settings: Mus musculus, sample concentration 100 μM, LPS 1 μg/ml
Method: A test substance for each concentration was prepared with DMEM, after which the test substance was added by each 100 μL/well therein, thus being reacted for 2 hours. Then, the cells were stimulated for 18 hours with LPS (1 μg/ml) treatment, such that DCFH2-DA (2′,7′-dichlorofluorescein diacetate) was added therein at a final concentration of 15 μM, thus being reacted for 30 minutes. Once a reaction was finished, the cells were washed five times with PBS and which a fluorescence value of DCF was measured on a spectrofluorimeter (480/530, ex/em). (Hayakaya M. et. al., EMBO J., 22: 3356-3866, 2003).

[6] = molecular target: T1, human recombinant DPP-IV (Homo sapiens, UniProt P27487); assay: DPP-4 inhibitory activity (Ala-Pro-AFC substrate, fluorometer); format: biochemical; settings: for inhibition at 200 µM: read-out: DPP-4 Inhibitory Activity (%); for DPP-4 Inhibitory Activity (%): 200 µM
T1 construct: purchased ProSpec
Method: Particularly, the black soybean (Seoritae) leaf extract (100 μg/ml) and the flavonol glycoside compound (200 μM) were dissolved in DMSO to prepare a sample solution. Then, 10 μl of a human recombinant DPP-IV (ProSpec, the U.S.) at a concentration of 1 μg/ml, 78 μl of an incubation buffer solution (50 mM Tris, pH 7.5), and 2 μl of the sample solution prepared above were added to a 96-well microplate, after which 16 μl (a final concentration reached 40 μM) of a substrate alanine-proline-7-amino-4-trifluoromethyl-coumarin (Ala-Pro-AFC) (Enzyme System Product Co.) was added therein, and initiated the reaction. After a reaction progressed at a room temperature for 60 minutes, an amount of AFC, which was a product generated, was measured by using a fluorometer, and identified DPP4 inhibitory activities of the black soybean (Seoritae) leaf extract and the flavonol glycoside compounds by means of Equation 1. […] DPP-4Inhibitory activity (%)=100−(A/A1×100) [Equation 1]
A: AFC concentration of sample
A1: AFC concentration of a negative control group

α-glucosidase (EC 3.2.1.20, Baker Yeast), sequence (P53341 whole entry): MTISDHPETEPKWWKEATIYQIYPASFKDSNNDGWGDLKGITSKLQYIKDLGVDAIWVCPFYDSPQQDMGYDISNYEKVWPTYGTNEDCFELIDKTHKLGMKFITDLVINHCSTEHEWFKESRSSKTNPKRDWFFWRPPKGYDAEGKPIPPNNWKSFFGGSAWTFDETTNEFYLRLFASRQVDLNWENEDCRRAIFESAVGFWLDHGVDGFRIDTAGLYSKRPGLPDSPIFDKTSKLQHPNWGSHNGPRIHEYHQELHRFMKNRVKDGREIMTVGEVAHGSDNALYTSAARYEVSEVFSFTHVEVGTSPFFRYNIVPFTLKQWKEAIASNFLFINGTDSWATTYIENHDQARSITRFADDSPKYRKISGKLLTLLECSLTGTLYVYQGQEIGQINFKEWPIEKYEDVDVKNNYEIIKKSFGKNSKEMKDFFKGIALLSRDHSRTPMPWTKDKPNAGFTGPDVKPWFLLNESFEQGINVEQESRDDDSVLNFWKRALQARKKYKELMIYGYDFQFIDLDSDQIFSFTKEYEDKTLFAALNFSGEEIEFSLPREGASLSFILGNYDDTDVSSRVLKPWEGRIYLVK
T1 sequence (P27487 whole entry): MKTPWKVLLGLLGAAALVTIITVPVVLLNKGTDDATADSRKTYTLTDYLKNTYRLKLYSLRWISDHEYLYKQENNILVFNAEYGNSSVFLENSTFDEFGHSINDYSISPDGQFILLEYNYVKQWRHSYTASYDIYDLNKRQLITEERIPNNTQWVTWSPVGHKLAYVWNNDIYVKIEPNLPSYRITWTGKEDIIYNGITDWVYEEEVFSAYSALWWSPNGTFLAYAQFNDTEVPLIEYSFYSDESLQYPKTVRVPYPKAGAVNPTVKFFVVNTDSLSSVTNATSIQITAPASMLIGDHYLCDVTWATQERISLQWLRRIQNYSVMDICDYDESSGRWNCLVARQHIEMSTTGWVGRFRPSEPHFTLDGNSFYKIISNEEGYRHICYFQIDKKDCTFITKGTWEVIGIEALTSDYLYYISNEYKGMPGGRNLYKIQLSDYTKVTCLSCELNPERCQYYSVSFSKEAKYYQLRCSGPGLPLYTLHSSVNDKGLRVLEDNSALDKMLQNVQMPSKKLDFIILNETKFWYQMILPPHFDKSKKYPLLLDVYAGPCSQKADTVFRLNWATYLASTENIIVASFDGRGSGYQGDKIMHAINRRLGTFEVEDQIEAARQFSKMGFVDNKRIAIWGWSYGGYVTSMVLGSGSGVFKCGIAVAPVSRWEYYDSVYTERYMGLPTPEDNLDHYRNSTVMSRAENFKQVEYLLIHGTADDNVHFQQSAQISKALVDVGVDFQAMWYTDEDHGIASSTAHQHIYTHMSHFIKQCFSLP

| DPP-4 Inhibitory Activity (%) ([6]; sample concentration 200 μM) | DPP-4 Inhibitory Activity (%) ([6]; sample concentration 200 μM, listed as quercetin) | Structure (SMILES) | inhibition at 100 µM [1] | activation at 100 µM [2] | DPPH Radical Scavenging Activity [3] | IC50 [4] | inhibition at 100 µM [5] | inhibition at 200 µM ([6]; sample concentration 200 μM) | LDL Oxidation Inhibitory Activity [4] | increase in amount of insulin secretion relative to its aglycone [2] | inhibition at 200 µM [6] |
| --- | --- | --- | --- | --- | --- | --- | --- | --- | --- | --- | --- |
| – | – | C[C@@H]1O[C@@H](OC[C@H]2O[C@@H](Oc3c(-c4ccc(O)c(O)c4)oc4cc(O)cc(O)c4c3=O)[C@H](O[C@@H]3O[C@H](CO)[C@@H](O)[C@H](O)[C@H]3O)[C@@H](O)[C@H]2O)[C@H](O)[C@H](O)[C@H]1O [Formula 1, quercetin 3-O-β-D-glucopyranosyl-(1→2)-[α-L-rhamnopyranosyl-(1→6)]-β-D-galactopyranoside] | 10.8 ± 0.8% | 2.1 ± 0.1% | 60.3 ± 1.4% | 1800 nM | 37.3 ± 1.8% | 48.4 ± 1% | – | – | – |
| – | – | O=c1c(O[C@@H]2OC(CC[C@@H]3OC(O)[C@H](O)C(O)C3O)[C@H](O)C(O)C2O[C@@H]2OC(CO)[C@@H](O)C(O)C2O)c(-c2ccc(O)cc2)oc2cc(O)cc(O)c12 (some centres unmarked) [Comparative Example 2, reference compound] | – | – | 8.0 ± 0.7% | – | – | – | 28.4% | – | – |
| – | – | O=c1c(O[C@@H]2OC(CO)[C@@H](O)C(O)C2O[C@@H]2OC(CO)[C@@H](O)C(O)C2O)c(-c2ccc(O)c(O)c2)oc2cc(O)cc(O)c12 (stereo partly drawn) [Formula 4, quercetin 3-O-(2-β-D-glucopyranosyl)-β-D-glucopyranoside] | 23.4 ± 2.3% | 63.6 ± 2.6% | 59.5 ± 0.5% | 2300 nM | 26 ± 1.9% | 42.5 ± 1.5% | – | twice | – |
| – | – | O=c1c(O)c(-c2ccc(O)cc2)oc2cc(O)cc(O)c12 [Kaempferol, reference compound] | – | ≤ 19% | – | – | – | – | – | – | – |
| – | – | C[C@@H]1O[C@@H](OC[C@H]2O[C@@H](Oc3c(-c4ccc(O)c(O)c4)oc4cc(O)cc(O)c4c3=O)[C@H](O[C@@H]3O[C@H](CO)[C@@H](O)[C@H](O)[C@H]3O)[C@@H](O)[C@@H]2O)[C@H](O)[C@H](O)[C@H]1O [Formula 2, quercetin 3-O-β-D-glucopyranosyl-(1→2)-[α-L-rhamnopyranosyl-(1→6)]-β-D-glucopyranoside] | 8.7 ± 2% | 25.3 ± 3.3% | 52.0 ± 0.1% | 1900 nM | 31.8 ± 1.7% | 42.2 ± 0.9% | – | – | – |
| – | – | COc1cc(-c2oc3cc(O)cc(O)c3c(=O)c2O[C@@H]2OC(CO)[C@H](O)C(O)C2O[C@@H]2OC(CO)[C@@H](O)C(O)C2O)ccc1O (stereo partly drawn) [Formula 6, isorhamnetin 3-O-(2-β-D-glucopyranosyl)-β-D-galactopyranoside] | 26.2 ± 1.7% | 38.5 ± 3.3% | 11.5 ± 0.5% | – | 58.8 ± 0.9% | 39.4% | 65.7% | – | – |
| 14.5 ± 1.5% | 145% | O=c1c(O)c(-c2ccc(O)c(O)c2)oc2cc(O)cc(O)c12 [Quercetin, reference compound] | – | 35.6 ± 3.4% | – | – | – | – | – | – | – |
| – | – | COc1cc(-c2oc3cc(O)cc(O)c3c(=O)c2O[C@@H]2OC(CO)[C@H](O)C(O)C2O[C@@H]2OC(C)[C@H](O)C(O)C2O)ccc1O (stereo partly drawn) [Formula 7, isorhamnetin 3-O-α-L-rhamnopyranosyl-(1→2)-β-D-galactopyranoside] | 22.7 ± 0.9% | 106 ± 5.1% | 7.5 ± 0.6% | – | 21.9 ± 0.6% | 48.1% | 55.7% | four | – |
| – | – | O=c1c(-c2ccc(O)cc2)coc2cc(O[C@@H]3O[C@H](CO)[C@@H](O)[C@H](O)[C@H]3O)cc(O)c12 [Comparative Example 4, Genistin, reference compound] | – | – | 3.4 ± 0.7% | – | – | – | 41.3% | – | – |
| – | – | O=c1c(O[C@@H]2OC(CO)[C@H](O)C(O)C2O[C@@H]2OC(CO)[C@@H](O)C(O)C2O)c(-c2ccc(O)c(O)c2)oc2cc(O)cc(O)c12 (stereo partly drawn) [Formula 3, quercetin 3-O-(2-β-D-glucopyranosyl)-β-D-galactopyranoside] | 63.9 ± 0.2% | 37.8 ± 5.4% | 64.8 ± 0.9% | 2100 nM | 44.1 ± 2.8% | 46.7 ± 1.5% | – | – | – |
| – | – | CC1O[C@@H](OC2C(O)[C@@H](O)C(CO)O[C@H]2Oc2c(-c3ccc(O)c(O)c3)oc3cc(O)cc(O)c3c2=O)C(O)C(O)[C@H]1O (stereo partly drawn) [Formula 5, quercetin 3-O-(2-α-D-rhamnopyranosyl)-β-D-galactopyranoside] | 17.6 ± 2.3% | 24.3 ± 2.7% | 85.9 ± 0.4% | 400 nM | 23.7 ± 1.4% | – | – | – | 48.7 ± 0.4% |
| – | – | COc1cc(-c2oc3cc(O)cc(O)c3c(=O)c2O)ccc1O [Isorhamnetin, reference compound] | – | 26.6 ± 4.1% | – | – | – | 21.6% | – | – | – |
| – | – | O=c1c(O[C@@H]2OC(CC[C@@H]3OC(O)[C@H](O)C(O)C3O)[C@H](O)C(O)C2O[C@@H]2OC(O)[C@H](O)C(O)C2O)c(-c2ccc(O)cc2)oc2cc(O)cc(O)c12 (some centres unmarked) [Comparative Example 3, reference compound] | – | ≤ 19% | 4.0 ± 0.6% | – | – | – | – | – | – |
